Data as given in PMC12337661, “PIEZO1 mechanical insensitivity in generalized lymphatic dysplasia with the potential for pharmacological rescue” (iScience, 2025).

Columns and labels:
Test in all cases: Intracellular Ca2+ measurement (fura-2), T-REx-293 cells stably transfected
Type in all cases: cell-based
[1] = target: T1, I2286T mPIEZO1 (Mus musculus, UniProt E2JF22, I2286T)
T1 construct: expressed in transfected cells
Description: (§1) T-REx-293 cell line was transfected with pcDNA4/TO-mPIEZO1 constructs using Lipofectamine 2000 (Invitrogen) as above and treated with 200 μg.mL^−1 zeocin (InvivoGen) to select for stably transfected cells. At least two strongly expressing clonal cell lines were established and tested for each variant. All cell lines were maintained in Dulbecco’s Modified Eagle’s medium (Invitrogen) supplemented with 10% heat-inactivated fetal calf serum (Sigma-Aldrich), penicillin (50 units.mL^−1) and streptomycin (0.5 mg.mL^−1) (Sigma-Aldrich) and grown at 37°C in a humidified 5% CO2 incubator.
(§2) For intracellular Ca^2+ assays, cells were plated at 80–90% confluence in 96-well plates 24 h prior to recordings (6–8 × 10^4 cells per well). […] Cells were washed with SBS and incubated at room temperature for 20 min prior to recordings. Equal volumes of 2x concentrated compounds were injected to test for acute channel activation. Pre-incubation with compounds occurred during the 20 min prior to recordings. To expose cell membranes to hypo-osmolality, an equal volume of hypotonic SBS (containing only 35 mM NaCl) was injected onto the cells. Measurements were made on a fluorescence plate reader (Flexstation III, Molecular Devices) at room temperature (21 ± 2°C). Fura-2 was excited at 340 nm and 380 nm and emitted light collected at 510 nm, with measurements shown as the change in fluorescence (F) ratio (ΔF340/380).
(§3) KC41 (Dooku1) was prepared as described.[28] All purchased chemicals and solvents were used without further purification unless otherwise stated. All compounds were at least 95% pure by 1H NMR. 1H Nuclear Magnetic Resonance spectra were recorded at 500 MHz using a Bruker DRX 500 instrument or at 400 MHz using a Bruker DPX 400. 1H spectra are referenced based on the residual proton in the solvent (e.g., the CHCl3, 0.01% in 99.99% CDCl3). Coupling constants (J) are reported to the nearest 0.1 Hz. 13C NMR spectra were recorded at 125 MHz on 500 MHz spectrometers or at 100 MHz on 400 MHz spectrometers. LC-MS was performed on a Bruker Daltronics running a gradient of increasing acetonitrile (5–95%) in H2O both containing 0.1% formic acid at 1 mL.min^−1, on a short path C18 reverse phase column, detecting compounds with both a diode array detector and a Bruker mass spectrum analyser. HRMS was performed on a Bruker Daltonics micrOTOF using positive electrospray ionisation (ES+). Automated column chromatograph was carried out using a Biotage Isolera Four, using either Sfär Silica D or KP-Silica cartridges. HPLC was performed on an Agilent 1290 Infinity Series equipped with a UV detector and Hyperprep C18 reverse phase column. Key to NMR abbreviations: s (singlet), br s (broad singlet) d (doublet), dd (doublet of doublets), ddd (doublet of doublets of doublets), t (triplet), dt (doublet of triples), q (quartet), m (multiplet), ap. t (apparent triplet). For experiments, Yoda1 and its analogues were prepared as 10 mM stock solutions in 100% dimethyl sulfoxide (DMSO) before serial dilution in DMSO and final dilution in aqueous solution. Cells were exposed to 0.1% DMSO for all concentrations of the compounds from 0 to 10 μM.

[2] = target: T2, WT mPIEZO1 (Mus musculus, UniProt E2JF22); settings: 1.5 min exposure
T2 construct: expressed in transfected cells
T2 sequence (E2JF22 whole entry): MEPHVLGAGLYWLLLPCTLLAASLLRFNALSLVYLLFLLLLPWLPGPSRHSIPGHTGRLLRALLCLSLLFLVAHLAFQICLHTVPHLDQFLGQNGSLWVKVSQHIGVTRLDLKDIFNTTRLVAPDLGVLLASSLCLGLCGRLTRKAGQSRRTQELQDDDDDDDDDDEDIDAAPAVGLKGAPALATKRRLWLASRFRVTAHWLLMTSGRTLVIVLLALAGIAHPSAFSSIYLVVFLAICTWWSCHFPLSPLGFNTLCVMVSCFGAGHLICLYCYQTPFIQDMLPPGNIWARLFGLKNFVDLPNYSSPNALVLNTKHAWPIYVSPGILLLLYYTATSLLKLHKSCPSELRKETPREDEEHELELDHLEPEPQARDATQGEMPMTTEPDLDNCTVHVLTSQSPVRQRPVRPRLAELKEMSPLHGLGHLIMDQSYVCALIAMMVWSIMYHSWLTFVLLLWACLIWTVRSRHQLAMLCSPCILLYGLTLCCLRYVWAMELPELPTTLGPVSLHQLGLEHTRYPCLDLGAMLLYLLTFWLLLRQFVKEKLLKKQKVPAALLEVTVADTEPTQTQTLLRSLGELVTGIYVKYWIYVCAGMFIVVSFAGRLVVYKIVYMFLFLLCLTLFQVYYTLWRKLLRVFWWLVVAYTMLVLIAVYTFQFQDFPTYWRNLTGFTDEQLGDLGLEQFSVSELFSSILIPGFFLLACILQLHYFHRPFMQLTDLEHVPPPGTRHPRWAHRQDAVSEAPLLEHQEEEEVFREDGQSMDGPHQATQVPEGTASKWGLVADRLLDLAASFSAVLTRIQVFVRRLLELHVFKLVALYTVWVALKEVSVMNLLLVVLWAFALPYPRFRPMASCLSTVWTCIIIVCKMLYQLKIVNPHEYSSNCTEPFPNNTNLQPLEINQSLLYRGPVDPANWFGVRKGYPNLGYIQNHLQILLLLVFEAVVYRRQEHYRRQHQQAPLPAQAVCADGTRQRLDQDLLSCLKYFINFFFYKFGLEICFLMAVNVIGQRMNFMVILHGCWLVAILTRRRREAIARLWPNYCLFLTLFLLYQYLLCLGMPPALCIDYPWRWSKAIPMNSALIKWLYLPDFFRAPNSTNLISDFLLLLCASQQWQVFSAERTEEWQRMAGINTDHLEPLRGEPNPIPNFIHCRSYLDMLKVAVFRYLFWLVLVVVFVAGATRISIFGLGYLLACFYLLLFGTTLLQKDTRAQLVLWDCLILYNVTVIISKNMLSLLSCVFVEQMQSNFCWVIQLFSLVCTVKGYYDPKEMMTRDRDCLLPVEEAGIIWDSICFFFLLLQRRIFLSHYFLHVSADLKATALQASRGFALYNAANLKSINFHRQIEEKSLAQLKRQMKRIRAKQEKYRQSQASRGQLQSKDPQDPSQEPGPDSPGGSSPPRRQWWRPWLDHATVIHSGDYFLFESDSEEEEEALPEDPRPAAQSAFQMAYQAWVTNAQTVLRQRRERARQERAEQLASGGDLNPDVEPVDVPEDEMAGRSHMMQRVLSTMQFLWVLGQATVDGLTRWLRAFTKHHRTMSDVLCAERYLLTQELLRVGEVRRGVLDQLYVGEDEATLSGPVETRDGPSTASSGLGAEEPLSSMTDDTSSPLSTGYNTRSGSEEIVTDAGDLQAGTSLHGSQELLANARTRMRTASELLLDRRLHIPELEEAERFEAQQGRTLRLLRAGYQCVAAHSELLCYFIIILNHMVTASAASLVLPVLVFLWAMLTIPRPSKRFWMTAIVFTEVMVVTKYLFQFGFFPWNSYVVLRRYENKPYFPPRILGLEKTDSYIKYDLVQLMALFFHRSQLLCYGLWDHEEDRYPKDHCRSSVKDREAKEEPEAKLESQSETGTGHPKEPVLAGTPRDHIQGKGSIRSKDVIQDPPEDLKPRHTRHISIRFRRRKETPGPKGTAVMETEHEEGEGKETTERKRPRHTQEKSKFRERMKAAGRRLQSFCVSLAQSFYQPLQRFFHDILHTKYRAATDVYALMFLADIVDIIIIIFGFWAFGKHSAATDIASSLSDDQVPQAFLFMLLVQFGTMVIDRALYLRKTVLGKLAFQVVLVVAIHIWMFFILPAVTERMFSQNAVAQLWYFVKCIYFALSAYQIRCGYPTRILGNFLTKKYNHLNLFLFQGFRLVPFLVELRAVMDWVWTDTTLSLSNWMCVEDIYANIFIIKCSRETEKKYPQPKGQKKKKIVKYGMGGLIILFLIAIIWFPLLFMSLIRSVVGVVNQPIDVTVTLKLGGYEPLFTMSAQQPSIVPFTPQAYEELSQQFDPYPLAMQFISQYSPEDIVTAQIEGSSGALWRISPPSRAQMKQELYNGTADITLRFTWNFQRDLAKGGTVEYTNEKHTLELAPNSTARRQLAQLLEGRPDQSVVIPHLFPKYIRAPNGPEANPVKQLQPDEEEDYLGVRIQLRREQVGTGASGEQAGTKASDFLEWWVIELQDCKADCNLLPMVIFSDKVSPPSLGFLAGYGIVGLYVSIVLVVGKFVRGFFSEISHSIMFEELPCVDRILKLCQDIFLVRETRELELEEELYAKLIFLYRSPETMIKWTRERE
Description: as §1, §2, §3

[3] = target: T3, G1994D mPIEZO1 (Mus musculus, UniProt E2JF22, G1994D); settings: for Mean normalise fluorescence (Figure 5d): G1994D
T3 construct: expressed in transfected cells
T3 sequence (E2JF22 whole entry G1994D): as the sequence (E2JF22 whole entry) above, with G1994D counted along it
Description: as §1, §2, §3

[4] = target: T4, E824V mPIEZO1 (Mus musculus, UniProt E2JF22, E824V); settings: versus WT
T4 construct: expressed in transfected cells
T4 sequence (E2JF22 whole entry E824V): as the sequence (E2JF22 whole entry) above, with E824V counted along it
Description: as §1, §2, §3

[5] = long (20 min) exposure, normalized to 3 μM Yoda1

T1 sequence (E2JF22 whole entry I2286T): as the sequence (E2JF22 whole entry) above, with I2286T counted along it

Clc1cccc(Cl)c1CSc1nnc(-c2cnccn2)s1 [Yoda1]
Mean (ΔFratio) ([1]; 0.3 µM, time 0 s): 0.00284
Mean (ΔFratio) ([1]; 0.3 µM, time 5 s): -0.01214
Mean (ΔFratio) ([1]; 0.3 µM, time 10 s): -0.00475
Mean (ΔFratio) ([1]; 0.3 µM, time 15 s): 0.0078
Mean (ΔFratio) ([1]; 0.3 µM, time 20 s): 0.0053
Mean (ΔFratio) ([1]; 0.3 µM, time 25 s): 9.46E-04
Mean (ΔFratio) ([1]; 0.3 µM, time 30 s): -0.3226
Mean (ΔFratio) ([1]; 0.3 µM, time 35 s): 0.06275
Mean (ΔFratio) ([1]; 0.3 µM, time 40 s): 0.07886
Mean (ΔFratio) ([1]; 0.3 µM, time 45 s): 0.1026
Mean (ΔFratio) ([1]; 0.3 µM, time 50 s): 0.1196
Mean (ΔFratio) ([1]; 0.3 µM, time 55 s): 0.1055
Mean (ΔFratio) ([1]; 0.3 µM, time 60 s): 0.1268
Mean (ΔFratio) ([1]; 0.3 µM, time 65 s): 0.1277
Mean (ΔFratio) ([1]; 0.3 µM, time 70 s): 0.1132
Mean (ΔFratio) ([1]; 0.3 µM, time 75 s): 0.108
Mean (ΔFratio) ([1]; 0.3 µM, time 80 s): 0.1196
Mean (ΔFratio) ([1]; 0.3 µM, time 85 s): 0.1097
Mean (ΔFratio) ([1]; 0.3 µM, time 90 s): 0.1266
Mean (ΔFratio) ([1]; 0.3 µM, time 95 s): 0.09696
Mean (ΔFratio) ([1]; 0.3 µM, time 100 s): 0.1131
Mean (ΔFratio) ([1]; 0.3 µM, time 105 s): 0.1125
Mean (ΔFratio) ([1]; 0.3 µM, time 110 s): 0.1236
Mean (ΔFratio) ([1]; 0.3 µM, time 115 s): 0.1032
Mean (ΔFratio) ([1]; 0.3 µM, time 120 s): 0.1051
Mean (ΔFratio) ([1]; 0.3 µM, time 125 s): 0.1128
Mean (ΔFratio) ([1]; 0.3 µM, time 130 s): 0.1149
Mean (ΔFratio) ([1]; 3 µM, time 0 s): 0.00514
Mean (ΔFratio) ([1]; 3 µM, time 5 s): -0.00971
Mean (ΔFratio) ([1]; 3 µM, time 10 s): -0.01128
Mean (ΔFratio) ([1]; 3 µM, time 15 s): -0.00374
Mean (ΔFratio) ([1]; 3 µM, time 20 s): 0.00352
Mean (ΔFratio) ([1]; 3 µM, time 25 s): 0.01607
Mean (ΔFratio) ([1]; 3 µM, time 30 s): -0.3514
Mean (ΔFratio) ([1]; 3 µM, time 35 s): -7.87E-04
Mean (ΔFratio) ([1]; 3 µM, time 40 s): 0.4454
Mean (ΔFratio) ([1]; 3 µM, time 45 s): 0.684
Mean (ΔFratio) ([1]; 3 µM, time 50 s): 0.8254
Mean (ΔFratio) ([1]; 3 µM, time 55 s): 0.9146
Mean (ΔFratio) ([1]; 3 µM, time 60 s): 1.017
Mean (ΔFratio) ([1]; 3 µM, time 65 s): 0.992
Mean (ΔFratio) ([1]; 3 µM, time 70 s): 1.046
Mean (ΔFratio) ([1]; 3 µM, time 75 s): 1.071
Mean (ΔFratio) ([1]; 3 µM, time 80 s): 1.067
Mean (ΔFratio) ([1]; 3 µM, time 85 s): 1.06
Mean (ΔFratio) ([1]; 3 µM, time 90 s): 1.0819
Mean (ΔFratio) ([1]; 3 µM, time 95 s): 1.076
Mean (ΔFratio) ([1]; 3 µM, time 100 s): 1.0617
Mean (ΔFratio) ([1]; 3 µM, time 105 s): 1.0398
Mean (ΔFratio) ([1]; 3 µM, time 110 s): 1.005
Mean (ΔFratio) ([1]; 3 µM, time 115 s): 1.038
Mean (ΔFratio) ([1]; 3 µM, time 120 s): 1.008
Mean (ΔFratio) ([1]; 3 µM, time 125 s): 0.9978
Mean (ΔFratio) ([1]; 3 µM, time 130 s): 0.9846
Mean normalise fluorescence ([1]; 1.5 min exposure, 0.03 µM): -0.00469
Mean normalise fluorescence ([1]; 1.5 min exposure, 0.1 µM): -0.00217
Mean normalise fluorescence ([1]; 1.5 min exposure, 0.3 µM): 0.03506
Mean normalise fluorescence ([1]; 1.5 min exposure, 1 µM): 0.1805
Mean normalise fluorescence ([1]; 1.5 min exposure, 3 µM): 0.4613
Mean normalise fluorescence ([1]; 1.5 min exposure, 5 µM): 0.7197
Mean normalise fluorescence ([1]; 1.5 min exposure, 10 µM): 1
Mean normalise fluorescence ([1]; 20 min exposure, normalized to 3 μM, 0.03 µM): 0.09646
Mean normalise fluorescence ([1]; 20 min exposure, normalized to 3 μM, 0.1 µM): 0.04298
Mean normalise fluorescence ([1]; 20 min exposure, normalized to 3 μM, 0.3 µM): 0.2627
Mean normalise fluorescence ([1]; 20 min exposure, normalized to 3 μM, 1 µM): 0.9872
Mean normalise fluorescence ([1]; 20 min exposure, normalized to 3 μM, 3 µM): 1
Mean normalise fluorescence ([1]; 20 min exposure, normalized to 3 μM, 10 µM): 0.9221
EC50 [1, 5]: 410 nM
Effect on mPIEZO1 channel function ([1]; versus WT): loss of MA: LOF; reduced Y1 potency
Mean normalise fluorescence ([2]; 0.01 µM): 0.01111
Mean normalise fluorescence ([2]; 0.03 µM): 0.04107
Mean normalise fluorescence ([2]; 0.1 µM): 0.2255
Mean normalise fluorescence ([2]; 0.3 µM): 0.6112
Mean normalise fluorescence ([2]; 1 µM): 0.8879
Mean normalise fluorescence ([2]; 3 µM): 0.9862
Mean normalise fluorescence ([2]; 5 µM): 1.0356
Mean normalise fluorescence ([2]; 10 µM): 1
EC50 ([2]; fitted Hill equation): 240 nM
Mean normalise fluorescence (Figure 5d) ([3]; Yoda1 concentration 0.01 µM): 0.00218
Mean normalise fluorescence (Figure 5d) ([3]; Yoda1 concentration 0.03 µM): 0.00674
Mean normalise fluorescence (Figure 5d) ([3]; Yoda1 concentration 0.1 µM): 0.01862
Mean normalise fluorescence (Figure 5d) ([3]; Yoda1 concentration 0.3 µM): 0.1159
Mean normalise fluorescence (Figure 5d) ([3]; Yoda1 concentration 1 µM): 0.3636
Mean normalise fluorescence (Figure 5d) ([3]; Yoda1 concentration 3 µM): 0.6853
Mean normalise fluorescence (Figure 5d) ([3]; Yoda1 concentration 5 µM): 0.8762
Mean normalise fluorescence (Figure 5d) ([3]; Yoda1 concentration 10 µM): 1
EC50 [3, 5]: 310 nM
Effect on mPIEZO1 channel function ([3]; versus WT): reduced MA: LOF; reduced inactivation: GOF; reduced Y1 potency
Effect on mPIEZO1 channel function [4]: reduced Y1 potency
